In ChEMBL document CHEMBL2417410, “Selectivity data: assessment, predictions, concordance, and implications” (J Med Chem, 2013):

Key:
[1] = target: Cyclin-dependent kinase 9 (Homo sapiens, UniProt P50750)
[2] = target: Serine/threonine-protein kinase pim-1 (Homo sapiens, UniProt P11309); experiment: Inhibition of PIM1 (unknown origin)
Serine/threonine-protein kinase pim-1, sequence (P11309 whole entry): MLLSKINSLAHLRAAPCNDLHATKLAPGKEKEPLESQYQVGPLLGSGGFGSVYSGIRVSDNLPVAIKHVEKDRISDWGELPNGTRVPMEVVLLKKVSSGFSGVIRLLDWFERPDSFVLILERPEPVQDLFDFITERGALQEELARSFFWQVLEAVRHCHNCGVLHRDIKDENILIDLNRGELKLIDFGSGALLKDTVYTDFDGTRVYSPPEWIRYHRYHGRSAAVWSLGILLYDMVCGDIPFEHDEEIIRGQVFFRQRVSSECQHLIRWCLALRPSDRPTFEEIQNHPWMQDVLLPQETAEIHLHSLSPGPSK

Cyclin-dependent kinase 9, sequence (P50750 whole entry): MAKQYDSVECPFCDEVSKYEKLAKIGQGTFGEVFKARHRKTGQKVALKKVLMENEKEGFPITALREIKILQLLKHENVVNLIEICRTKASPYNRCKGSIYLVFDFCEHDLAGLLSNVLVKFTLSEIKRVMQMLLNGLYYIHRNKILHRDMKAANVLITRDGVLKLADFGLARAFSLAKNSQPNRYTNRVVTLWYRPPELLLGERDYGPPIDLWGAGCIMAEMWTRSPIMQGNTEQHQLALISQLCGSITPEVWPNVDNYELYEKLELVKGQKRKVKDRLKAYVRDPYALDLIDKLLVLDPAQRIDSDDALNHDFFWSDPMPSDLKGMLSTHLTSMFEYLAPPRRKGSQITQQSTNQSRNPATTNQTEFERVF

Row | IC50 [1] | IC50 [2] | Compound
1 | 10 nM | – | NC(=O)c1cc(-c2ccnc(N)n2)[nH]c1-c1ccc(Cl)cc1Cl
2 | 631 nM | – | Cc1n[nH]c2ccc(-c3cccnc3)cc12
3 | – | 50.1 nM | CN1CCN(c2nc(C3=C(c4c[nH]c5ccccc45)C(=O)NC3=O)c3ccccc3n2)CC1 [SOTRASTAURIN]
